{"source": "patent US20220226369A1", "about": "“ETHANOL HARDENER AND USE THEREOF” (priority 2019, published 2022)", "key": {"[1]": {"test_system": "rabbit ear vein", "assay": "Embolic effect in rabbit ear vein", "type": "in vivo, rabbits", "conditions": "0.1 mL injected, after one-month recovery, India ink", "experimental": "Sixty healthy male rabbits with body weight of 2.5±0.2 kg were selected and divided into 6 groups of 10. The rabbits were anesthetized with a 3% sodium pentobarbital solution by intraperitoneal injection at 0.8 mL/kg. An anticoagulated and disinfected PE-8 catheter (0.20 mm×0.36 mm) was inserted into the distal end of the ear vein, until the end of the catheter reached the midpoint of the ear vein. The in-vitro end of the catheter was connected with a 1-mL syringe through a cannula.\n0.1 mL of each of the sclerosing agents of various embodiments with different components was injected at a constant speed through the PE-8 catheter. After 30 seconds, the catheter was slowly and gently withdrawn, and a cotton pad was used for hemostasis. Both left and right ears of the animals were treated with the same procedures. The animals after sclerosing treatment were accommodate in individual cages. After a one-month recovery period, after visual inspection, a normal saline containing India ink was slowly injected at the distal end of the ear vein, so as to observe and record whether the blood vessels were completely embolized. The embolization ratio in each group was recorded (Table 2)."}, "[2]": {"assay": "Viscosity test by capillary viscometer", "type": "physicochemical", "conditions": "20° C.", "experimental": "The viscosity of Examples 1, 5 and 7 and ethanol was measured by a capillary viscometer at an ambient temperature of 20° C. The capillary diameter was 0.5-0.6 mm and the viscometer constant was 0.005085 mm^2/s^2. The time difference of liquid passing through the capillary was recorded.\nViscosity=time difference×viscometer constant"}}, "data": [{"compound": "CCO", "note": "[Ethanol, ethanol]", "values": [{"measurement": "Ratio of completely embolized vessels", "setting": "[1]", "result": "60% (12/20)"}, {"measurement": "Time difference", "setting": "[2]; capillary diameter 0.5-0.6 mm", "result": 245, "unit": "s"}, {"measurement": "Viscosity", "setting": "[2]; viscometer constant 0.005085 mm^2/s^2", "result": 1.25, "unit": "mm^2/s"}]}]}
